Laboratory results as given in ChEMBL document CHEMBL5465560, “Selectivity Literature for EUbOPEN Chemogenomic Library” (2024).
pIC50: −log10 of the molar value.

Legend:
[1] = target: Serine/threonine-protein kinase 16 (Homo sapiens, UniProt O75716); assay: Selectivity interaction (KinomeScan (DiscoverX)) EUB0000092b STK16; conditions: at 10 µM
[2] = target: Dual specificity protein kinase CLK1 (Homo sapiens, UniProt P49759); assay: Selectivity interaction (Enzymatic assay) EUB0001550a CLK1
[3] = target: Ephrin type-A receptor 5 (Homo sapiens) (UniProt P54756); assay: Selectivity interaction (Upstate Kinase Profiler service (Millipore)) EUB0000056c EPHA5; conditions: at 1 µM
[4] = target: CDK12/Cyclin K (Homo sapiens) (UniProt O75909+Q9NYV4); assay: (§1) Selectivity interaction (ProQinase) EUB0000171b CDK12; format: protein-complex assay
[5] = system: CDK12/Cyclin K (Homo sapiens), O75909+Q9NYV4 [R722C]; assay: as §1; format: protein-complex assay; conditions: at 5 µM
[6] = target: Tyrosine-protein kinase Srms (Homo sapiens) (UniProt Q9H3Y6); assay: Selectivity interaction (ProQinase) EUB0000171b SRMS
[7] = target: T1, SNF-related serine/threonine-protein kinase (Homo sapiens) (UniProt Q9NRH2); assay: Selectivity interaction (KinomeScan (DiscoverX)) EUB0001079a SNRK; conditions: at 1 µM
T1 sequence (whole entry): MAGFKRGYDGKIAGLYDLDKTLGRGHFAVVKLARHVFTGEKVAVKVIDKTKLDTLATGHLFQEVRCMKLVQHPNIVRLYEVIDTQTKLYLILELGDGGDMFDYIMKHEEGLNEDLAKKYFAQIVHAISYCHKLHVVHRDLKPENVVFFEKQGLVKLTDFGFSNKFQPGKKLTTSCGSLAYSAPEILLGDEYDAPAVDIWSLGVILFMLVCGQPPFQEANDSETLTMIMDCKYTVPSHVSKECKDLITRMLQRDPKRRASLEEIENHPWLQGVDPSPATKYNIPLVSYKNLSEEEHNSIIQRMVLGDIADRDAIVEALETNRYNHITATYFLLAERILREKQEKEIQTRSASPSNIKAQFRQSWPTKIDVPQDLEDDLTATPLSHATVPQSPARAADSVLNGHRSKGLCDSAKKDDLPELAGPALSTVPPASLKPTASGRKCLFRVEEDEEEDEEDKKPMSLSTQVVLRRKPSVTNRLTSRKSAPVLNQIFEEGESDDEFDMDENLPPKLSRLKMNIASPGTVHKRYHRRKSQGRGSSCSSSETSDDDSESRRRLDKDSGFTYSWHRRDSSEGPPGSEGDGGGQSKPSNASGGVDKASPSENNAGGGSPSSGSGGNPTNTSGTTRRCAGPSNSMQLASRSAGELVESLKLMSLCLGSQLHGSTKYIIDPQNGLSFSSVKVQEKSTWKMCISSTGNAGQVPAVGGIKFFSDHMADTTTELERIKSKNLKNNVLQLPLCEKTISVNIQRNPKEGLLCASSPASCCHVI

[8] = target: Cyclin-dependent kinase 7 (Homo sapiens, UniProt P50613); assay: Selectivity interaction (KinomeScan (DiscoverX)) EUB0000666a CDK7; conditions: at 10 µM
[9] = target: T2, Ribosomal protein S6 kinase alpha-1 (Homo sapiens, UniProt Q15418); assay: (§2) Selectivity interaction (ActivX KiNativ screen (kinase selectivity in THP-1 cell lysates)) EUB0000639a RPS6KA1; format: subcellular; conditions: lysate, at 0.04 µM
[10] = target: T2, Ribosomal protein S6 kinase alpha-1; assay: as §2; format: subcellular; conditions: lysate, at 0.01 µM
[11] = target: Phosphatidylinositol 4,5-bisphosphate 3-kinase catalytic subunit gamma isoform (Homo sapiens) (UniProt P48736); assay: Selectivity interaction (KinomeScan (DiscoverX)) EUB0000695a PIK3CG; conditions: at 100 nM
[12] = target: Tyrosine-protein kinase SYK (Homo sapiens, UniProt P43405); assay: Selectivity interaction (KinomeScan (DiscoverX)) EUB0000595a SYK; conditions: at 10 µM
[13] = target: Vascular endothelial growth factor receptor 3 (Homo sapiens, UniProt P35916); assay: Selectivity interaction (KinomeScan (DiscoverX)) EUB0000045b FLT4
[14] = target: Serine/threonine-protein kinase 32A (Homo sapiens) (UniProt Q8WU08); assay: Selectivity interaction (KinomeScan (DiscoverX)) EUB0000045b STK32A
[15] = target: Serine/threonine-protein kinase tousled-like 2 (Homo sapiens) (UniProt Q86UE8); assay: Selectivity interaction (KinomeScan (DiscoverX)) EUB0000618a TLK2; conditions: at 10 µM
[16] = target: Serine/threonine-protein kinase PAK 3 (Homo sapiens) (UniProt O75914); assay: Selectivity interaction (KinomeScan (DiscoverX)) EUB0000618a PAK3; conditions: at 10 µM
[17] = target: T3, Cyclin-dependent kinase-like 5 (Homo sapiens) (UniProt O76039); assay: Selectivity interaction (Ambit KINOMEscan and KiNATiv profiling in Jurkat cells) EUB0000090b CDKL5; format: cell-based; conditions: at 1 µM
T3 sequence (whole entry): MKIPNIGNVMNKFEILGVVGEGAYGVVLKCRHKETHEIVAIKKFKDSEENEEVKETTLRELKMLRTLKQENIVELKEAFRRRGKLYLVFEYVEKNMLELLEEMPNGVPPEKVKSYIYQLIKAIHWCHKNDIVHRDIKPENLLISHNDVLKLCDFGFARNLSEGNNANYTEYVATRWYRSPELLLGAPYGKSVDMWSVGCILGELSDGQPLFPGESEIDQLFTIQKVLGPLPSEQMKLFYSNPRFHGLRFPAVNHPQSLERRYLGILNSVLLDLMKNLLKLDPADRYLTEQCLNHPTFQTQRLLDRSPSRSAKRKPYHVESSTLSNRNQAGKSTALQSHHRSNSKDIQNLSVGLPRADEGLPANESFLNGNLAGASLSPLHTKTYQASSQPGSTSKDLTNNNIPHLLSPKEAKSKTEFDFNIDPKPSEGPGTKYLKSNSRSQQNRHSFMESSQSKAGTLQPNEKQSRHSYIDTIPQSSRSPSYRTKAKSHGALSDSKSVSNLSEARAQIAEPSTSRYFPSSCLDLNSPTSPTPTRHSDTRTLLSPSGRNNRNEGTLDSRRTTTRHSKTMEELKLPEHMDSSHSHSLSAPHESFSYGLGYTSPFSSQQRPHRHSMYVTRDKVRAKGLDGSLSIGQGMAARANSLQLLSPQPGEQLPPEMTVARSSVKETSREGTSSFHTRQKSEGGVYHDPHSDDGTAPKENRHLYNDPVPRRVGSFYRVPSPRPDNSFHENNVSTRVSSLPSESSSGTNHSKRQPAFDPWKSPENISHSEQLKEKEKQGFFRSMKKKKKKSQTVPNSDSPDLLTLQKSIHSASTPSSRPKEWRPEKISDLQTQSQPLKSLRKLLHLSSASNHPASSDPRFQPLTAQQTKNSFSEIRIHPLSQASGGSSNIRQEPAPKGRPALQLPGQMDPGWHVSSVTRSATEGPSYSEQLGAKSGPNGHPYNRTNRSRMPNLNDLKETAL

[18] = target: Phosphatidylinositol 3-kinase catalytic subunit type 3 (Homo sapiens, UniProt Q8NEB9); assay: Selectivity interaction (ActivX KiNativ screen (ex vivo kinase selectivity in human PBMCs)) EUB0001619a PIK3C3; format: cell-based; conditions: PBMC, at 1 µM

Sequence of Vascular endothelial growth factor receptor 3 (P35916 whole entry): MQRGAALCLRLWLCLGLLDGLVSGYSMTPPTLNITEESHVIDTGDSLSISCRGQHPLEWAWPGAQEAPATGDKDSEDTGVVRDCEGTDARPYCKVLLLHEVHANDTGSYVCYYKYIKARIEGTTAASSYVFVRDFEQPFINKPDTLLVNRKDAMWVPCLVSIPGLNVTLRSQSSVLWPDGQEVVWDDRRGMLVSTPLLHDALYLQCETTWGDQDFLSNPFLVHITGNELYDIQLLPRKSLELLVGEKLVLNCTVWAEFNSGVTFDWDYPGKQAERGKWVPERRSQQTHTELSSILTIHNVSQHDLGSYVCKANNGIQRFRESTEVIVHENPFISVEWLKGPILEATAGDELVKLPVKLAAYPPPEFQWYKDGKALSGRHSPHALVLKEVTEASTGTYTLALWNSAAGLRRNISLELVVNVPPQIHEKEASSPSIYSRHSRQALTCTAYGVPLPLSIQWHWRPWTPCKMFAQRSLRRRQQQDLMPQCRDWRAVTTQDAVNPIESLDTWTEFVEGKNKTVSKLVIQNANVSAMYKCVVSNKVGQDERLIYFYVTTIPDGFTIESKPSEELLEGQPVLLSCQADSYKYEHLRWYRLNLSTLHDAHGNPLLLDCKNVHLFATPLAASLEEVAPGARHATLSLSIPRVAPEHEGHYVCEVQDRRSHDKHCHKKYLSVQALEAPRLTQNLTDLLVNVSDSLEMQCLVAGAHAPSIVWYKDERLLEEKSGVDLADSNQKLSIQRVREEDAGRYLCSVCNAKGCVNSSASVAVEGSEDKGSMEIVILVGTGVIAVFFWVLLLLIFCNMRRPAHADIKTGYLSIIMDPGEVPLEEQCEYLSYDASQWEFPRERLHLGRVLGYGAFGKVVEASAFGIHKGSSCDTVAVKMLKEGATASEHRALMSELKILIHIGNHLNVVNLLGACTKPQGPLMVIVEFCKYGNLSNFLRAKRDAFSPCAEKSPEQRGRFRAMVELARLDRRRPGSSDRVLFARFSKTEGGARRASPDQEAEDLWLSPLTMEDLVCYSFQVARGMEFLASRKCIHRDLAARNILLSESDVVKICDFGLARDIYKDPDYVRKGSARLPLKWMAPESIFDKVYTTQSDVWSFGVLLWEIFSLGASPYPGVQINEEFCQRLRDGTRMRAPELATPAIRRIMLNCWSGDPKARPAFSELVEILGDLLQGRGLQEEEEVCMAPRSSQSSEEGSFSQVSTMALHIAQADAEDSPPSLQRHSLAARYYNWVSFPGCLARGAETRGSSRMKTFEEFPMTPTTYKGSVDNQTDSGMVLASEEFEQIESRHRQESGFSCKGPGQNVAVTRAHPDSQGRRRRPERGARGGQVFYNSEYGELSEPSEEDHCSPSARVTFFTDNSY
Sequence of Serine/threonine-protein kinase 32A (Homo sapiens) (Q8WU08 whole entry): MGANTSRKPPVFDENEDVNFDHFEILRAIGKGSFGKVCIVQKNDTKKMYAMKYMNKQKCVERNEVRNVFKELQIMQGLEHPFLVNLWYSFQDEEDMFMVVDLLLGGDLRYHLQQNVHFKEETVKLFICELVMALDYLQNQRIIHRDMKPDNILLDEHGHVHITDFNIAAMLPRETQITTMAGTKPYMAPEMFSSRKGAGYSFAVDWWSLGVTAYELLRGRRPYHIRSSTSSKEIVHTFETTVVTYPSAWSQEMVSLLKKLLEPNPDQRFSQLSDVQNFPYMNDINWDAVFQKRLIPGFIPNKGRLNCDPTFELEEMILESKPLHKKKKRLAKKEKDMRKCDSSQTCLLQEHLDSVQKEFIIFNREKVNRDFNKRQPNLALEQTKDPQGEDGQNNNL
T2 sequence (Q15418 whole entry): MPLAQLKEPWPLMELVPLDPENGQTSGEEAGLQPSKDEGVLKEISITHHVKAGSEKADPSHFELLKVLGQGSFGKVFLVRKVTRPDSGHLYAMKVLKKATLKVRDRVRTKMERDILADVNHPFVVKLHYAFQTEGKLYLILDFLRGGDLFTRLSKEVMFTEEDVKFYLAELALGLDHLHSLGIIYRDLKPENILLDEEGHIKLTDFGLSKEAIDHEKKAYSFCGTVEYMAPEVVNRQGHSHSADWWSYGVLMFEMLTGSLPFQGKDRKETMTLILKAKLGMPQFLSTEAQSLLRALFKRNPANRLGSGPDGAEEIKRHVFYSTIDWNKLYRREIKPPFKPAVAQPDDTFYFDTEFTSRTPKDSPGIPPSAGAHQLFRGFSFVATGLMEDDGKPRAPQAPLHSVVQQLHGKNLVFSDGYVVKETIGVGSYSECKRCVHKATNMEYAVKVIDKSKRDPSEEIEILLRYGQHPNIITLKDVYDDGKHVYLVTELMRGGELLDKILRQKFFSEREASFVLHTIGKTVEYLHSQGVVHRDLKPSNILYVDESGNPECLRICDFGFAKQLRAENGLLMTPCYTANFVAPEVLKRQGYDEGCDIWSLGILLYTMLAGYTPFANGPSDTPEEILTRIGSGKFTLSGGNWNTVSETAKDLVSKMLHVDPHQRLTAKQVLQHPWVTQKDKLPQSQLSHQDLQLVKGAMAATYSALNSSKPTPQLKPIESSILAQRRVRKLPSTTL
Sequence of CDK12/Cyclin K (Homo sapiens) (O75909 whole entry, looked up): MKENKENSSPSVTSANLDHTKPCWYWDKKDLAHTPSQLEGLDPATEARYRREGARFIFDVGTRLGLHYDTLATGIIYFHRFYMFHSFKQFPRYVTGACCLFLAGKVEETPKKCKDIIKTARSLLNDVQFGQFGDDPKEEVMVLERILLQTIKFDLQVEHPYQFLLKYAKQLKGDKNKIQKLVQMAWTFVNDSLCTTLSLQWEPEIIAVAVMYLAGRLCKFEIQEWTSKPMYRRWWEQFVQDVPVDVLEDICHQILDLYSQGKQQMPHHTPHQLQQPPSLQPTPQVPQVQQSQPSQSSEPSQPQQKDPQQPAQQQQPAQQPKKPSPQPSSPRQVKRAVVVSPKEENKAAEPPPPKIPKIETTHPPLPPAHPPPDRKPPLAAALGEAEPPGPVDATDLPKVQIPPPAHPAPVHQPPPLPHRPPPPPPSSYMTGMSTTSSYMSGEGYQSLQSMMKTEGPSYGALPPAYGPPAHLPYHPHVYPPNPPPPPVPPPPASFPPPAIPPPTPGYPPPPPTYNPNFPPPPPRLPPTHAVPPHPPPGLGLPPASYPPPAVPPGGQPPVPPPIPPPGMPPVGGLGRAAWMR
Sequence of CDK12/Cyclin K (Homo sapiens) (Q9NYV4 whole entry, looked up): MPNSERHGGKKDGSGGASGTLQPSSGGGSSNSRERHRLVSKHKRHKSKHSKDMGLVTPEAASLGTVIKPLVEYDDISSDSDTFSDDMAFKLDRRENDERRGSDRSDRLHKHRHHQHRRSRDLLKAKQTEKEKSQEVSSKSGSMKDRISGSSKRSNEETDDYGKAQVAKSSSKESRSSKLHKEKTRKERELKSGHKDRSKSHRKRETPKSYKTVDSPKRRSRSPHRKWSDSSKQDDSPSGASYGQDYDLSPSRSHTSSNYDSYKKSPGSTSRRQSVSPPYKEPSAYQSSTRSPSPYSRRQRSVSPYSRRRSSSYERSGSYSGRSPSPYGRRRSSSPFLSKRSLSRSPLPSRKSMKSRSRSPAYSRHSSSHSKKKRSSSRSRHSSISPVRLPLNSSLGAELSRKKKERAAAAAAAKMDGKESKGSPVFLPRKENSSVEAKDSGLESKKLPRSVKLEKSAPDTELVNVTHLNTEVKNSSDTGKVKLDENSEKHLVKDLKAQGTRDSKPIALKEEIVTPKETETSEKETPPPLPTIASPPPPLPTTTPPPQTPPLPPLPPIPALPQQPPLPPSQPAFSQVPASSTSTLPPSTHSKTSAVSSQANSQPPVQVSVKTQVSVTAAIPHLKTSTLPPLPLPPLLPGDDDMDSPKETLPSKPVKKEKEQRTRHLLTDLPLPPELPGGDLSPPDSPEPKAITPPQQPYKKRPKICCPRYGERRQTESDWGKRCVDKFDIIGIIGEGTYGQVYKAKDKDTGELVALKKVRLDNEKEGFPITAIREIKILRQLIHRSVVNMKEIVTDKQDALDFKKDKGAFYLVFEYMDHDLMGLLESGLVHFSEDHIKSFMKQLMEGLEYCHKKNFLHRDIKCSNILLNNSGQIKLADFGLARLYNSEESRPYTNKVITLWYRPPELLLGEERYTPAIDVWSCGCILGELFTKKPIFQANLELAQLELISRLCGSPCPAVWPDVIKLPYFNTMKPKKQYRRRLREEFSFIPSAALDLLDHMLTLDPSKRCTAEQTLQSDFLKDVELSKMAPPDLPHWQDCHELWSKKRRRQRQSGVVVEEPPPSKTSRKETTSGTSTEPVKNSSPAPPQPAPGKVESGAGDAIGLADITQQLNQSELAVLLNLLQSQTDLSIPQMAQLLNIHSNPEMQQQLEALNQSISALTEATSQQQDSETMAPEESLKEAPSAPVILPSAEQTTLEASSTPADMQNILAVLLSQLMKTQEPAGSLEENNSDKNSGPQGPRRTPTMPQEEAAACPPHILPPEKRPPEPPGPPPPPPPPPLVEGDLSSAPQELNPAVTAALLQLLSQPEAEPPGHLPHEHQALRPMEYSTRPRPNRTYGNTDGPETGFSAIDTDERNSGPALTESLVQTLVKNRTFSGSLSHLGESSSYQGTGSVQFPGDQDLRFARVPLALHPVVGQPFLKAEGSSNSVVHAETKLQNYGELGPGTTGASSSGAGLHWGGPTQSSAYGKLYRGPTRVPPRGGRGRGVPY
Sequence of Tyrosine-protein kinase Srms (Homo sapiens) (Q9H3Y6 whole entry): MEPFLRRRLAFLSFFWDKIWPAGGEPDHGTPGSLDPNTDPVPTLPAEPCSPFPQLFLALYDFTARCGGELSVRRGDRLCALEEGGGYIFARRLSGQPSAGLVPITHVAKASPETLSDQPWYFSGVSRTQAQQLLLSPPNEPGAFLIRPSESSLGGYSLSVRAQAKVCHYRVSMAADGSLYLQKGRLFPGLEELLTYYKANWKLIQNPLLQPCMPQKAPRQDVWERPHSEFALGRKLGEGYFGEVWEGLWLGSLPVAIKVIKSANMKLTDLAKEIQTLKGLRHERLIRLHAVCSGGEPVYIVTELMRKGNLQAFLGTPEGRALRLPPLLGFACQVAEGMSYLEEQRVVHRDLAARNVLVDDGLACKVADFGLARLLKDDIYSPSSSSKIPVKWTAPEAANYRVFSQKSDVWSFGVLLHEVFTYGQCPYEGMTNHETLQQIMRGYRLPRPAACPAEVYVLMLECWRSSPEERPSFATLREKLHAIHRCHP

CCC(=O)N1CCN(c2ccc(-n3c(=O)ccc4cnc5ccc(-c6cnc7ccccc7c6)cc5c43)cc2C(F)(F)F)CC1
% of control [1]: 18%

CN(C)CC#Cc1ccc2[nH]c3c(c2c1)-c1nc(N)ncc1CCC3
pIC50 [2]: 6.38

Cc1ccc(-c2ccc3c(ccc4sc5c(c43)NC[C@@H](C)NC5=O)n2)cn1
% of inhibition [3]: 6%

C=CC(=O)Nc1cccc(C(=O)Nc2ccc(Nc3cc(-c4[nH]c(SC)nc4C)ccn3)cc2)c1
% of control ([4]; at 1 µM): 93% | % of control ([4]; at 5 µM): 57% | % of control [5]: 66% | % of control ([6]; at 1 µM): 95% | % of control ([6]; at 5 µM): 92%

Nc1cnc(N2CCc3cc(S(=O)(=O)Nc4c(F)cc(Cl)cc4F)cc(N4CCCC4=O)c32)nc1 [TP-020n]
% of control [7]: 100%

O=C(NOC[C@H](O)CO)c1ccc(F)c(F)c1Nc1ccc(I)cc1F
% of control [8]: 83%

CC[C@@H]1[C@H](F)C(=O)N[C@@H]1COc1nccc2cc(C(N)=O)c(OC)cc12 [ZIMLOVISERTIB]
% of inhibition [9]: -6.2% | % of inhibition [10]: 16.9%

Cc1cc(F)c(C(=O)Nc2cccc(-c3nncn3C(C)C)n2)cc1-n1cnc(C2CC2)c1
% of control [11]: 100%

COCC(=O)NC/C=C/c1ccc2ncnc(Nc3ccc(Oc4ccc(C)nc4)c(C)c3)c2c1 [CP-724714]
% of control [12]: 100%

C=CC(=O)Nc1cc(-n2c(=O)ccc3cnc4ccc(-c5ccc(NS(C)(=O)=O)cc5)cc4c32)ccc1C
% of control ([13]; at 1 µM): 72% | % of control ([13]; at 10 µM): 100% | % of control ([14]; at 1 µM): 100% | % of control ([14]; at 10 µM): 100%

O[C@H]1CC[C@H](Nc2ncc3nc(Nc4c(F)cc(F)cc4F)n([C@H]4CCOC4)c3n2)CC1
% of control [15]: 99% | % of control [16]: 100%

CN(C)C/C=C/C(=O)Nc1ccc(C(=O)N2CCCC(Nc3ncc(Cl)c(-c4c[nH]c5ccccc45)n3)C2)cc1 (configuration not stated)
% of control [17]: 100%

N#Cc1cccc(-c2c[nH]c3ncnc(N4CCOCC4)c23)c1
% of inhibition [18]: -17%
